Reference: paper PMC5750217 (Nature Communications, 2018)

Legend:
GltPh-G396S/R397C = target: T1, GltPh-G396S/R397C (Pyrococcus horikoshii, UniProt O59010, G396S/R397C); test: biochemical; format: biochemical
T1 construct: hexa-His (N, cleaved yes); made in house; host or cells: Escherichia coli Top10 (pBAD)
Procedure: Mutant and wild-type GltPh with an amino-terminal hexa-His tag were expressed in Escherichia coli Top10 cells (Invitrogen), which were grown in Luria broth medium at 37 °C. Ampicillin was added to a final concentration of 100 μg per ml. To induce expression of GltPh, 0.1% L-arabinose was added when cells reached an optical density of 0.6 at 660 nm, and cells were harvested 4 h post induction. Membranes were isolated, and then solubilised with n-dodecyl-β-D-maltopyranoside (C12M, Anatrace). Histidine containing proteins were purified using Ni^2+−nitrilotriacetic acid resin (Qiagen). The histidine tag was subsequently removed from GltPh by digestion with thrombin (10 U per mg protein) and the protein further purified on a Superdex 200 size exclusion column, where the detergent was exchanged to n-decyl-β-D-maltopyranoside (C10M, Anatrace).
Pure protein was reconstituted into liposomes composed of 75% E. coli Polar Lipid Extract and 25% 1-palmitoyl-2-oleoyl-sn-glycero-3 ^−phopshocholine (Avanti Polar Lipids). Lipids were mixed, dried under nitrogen and resuspended in internal buffer (100 mM KCl, 20 mM HEPES-Tris pH 7.5) using brief sonication (Laboratory Supplies Co.). The lipid suspension was frozen in liquid nitrogen and thawed at room temperature several times. Liposomes were formed by extrusion through 400 nm polycarbonate membranes (Avanti Polar Lipids) and were treated with Triton X-100 at a 0.5:1 (w/w) detergent to lipid ratio prior to the addition of protein at 0.25 μg protein per mg lipid. The protein/lipid mixture was left at room temperature for 30 min before detergent was removed using SM2 Biobeads (BioRad). The mixture was then incubated with gentle agitation, with four consecutive batches of Biobeads (80 mg per ml). Proteoliposomes were concentrated by centrifugation at 150,000 g for 30 min, resuspended at 100 mg lipid per ml and either used immediately or flash-frozen in liquid nitrogen and stored at −80 °C.
Mutant and wild-type GltPh-mediated transport of radiolabelled substrate was assayed by diluting proteoliposomes (100 mg lipid per ml) 133-fold into uptake buffer (100 mM NaCl, 20 mM HEPES-Tris pH 7.5, 1 μM valinomycin, 100 nM–1 µM L-[^3H]substrate) pre-warmed to 30 °C. At each time point, a 200 µl aliquot was removed and diluted 10-fold into ice-cold quench buffer (100 mM LiCl, 20 mM HEPES-Tris pH 7.5), followed by immediate filtration over nitrocellulose filters (0.22 μm pore size, Millipore). The filters were washed with ice-cold quench buffer and assayed for radioactivity using a Trilux beta counter (PerkinElmer). To establish substrate concentration–response curves, extraliposomal L-[^3H]substrate was varied between 500 nM and 100 µM, maintaining NaCl concentrations at 300 mM. For inhibitor concentration–response curves, for wild-type GltPh 100 nM L-[^3H]aspartate, and for mutant GltPh 1 µM L-[^3H]serine, was co-applied with varying inhibitor concentrations. Background levels of uptake were measured by diluting proteoliposomes into internal buffer (100 mM KCl, 20 mM HEPES-Tris pH 7.5) containing 1 µM of valinomycin and the indicated concentrations of L-[^3H]substrate.

ASCT1 = target: T2, ASCT1 (Homo sapiens, UniProt P43007); test: Radiolabelled uptake in oocytes expressing ASCT1; format: cell-based; details: 10 µM radiolabelled substrate, 10 min, room temperature
T2 construct: expressed in transfected cells; host or cells: Xenopus laevis oocytes (cRNA injection)
T2 sequence (P43007 1-532): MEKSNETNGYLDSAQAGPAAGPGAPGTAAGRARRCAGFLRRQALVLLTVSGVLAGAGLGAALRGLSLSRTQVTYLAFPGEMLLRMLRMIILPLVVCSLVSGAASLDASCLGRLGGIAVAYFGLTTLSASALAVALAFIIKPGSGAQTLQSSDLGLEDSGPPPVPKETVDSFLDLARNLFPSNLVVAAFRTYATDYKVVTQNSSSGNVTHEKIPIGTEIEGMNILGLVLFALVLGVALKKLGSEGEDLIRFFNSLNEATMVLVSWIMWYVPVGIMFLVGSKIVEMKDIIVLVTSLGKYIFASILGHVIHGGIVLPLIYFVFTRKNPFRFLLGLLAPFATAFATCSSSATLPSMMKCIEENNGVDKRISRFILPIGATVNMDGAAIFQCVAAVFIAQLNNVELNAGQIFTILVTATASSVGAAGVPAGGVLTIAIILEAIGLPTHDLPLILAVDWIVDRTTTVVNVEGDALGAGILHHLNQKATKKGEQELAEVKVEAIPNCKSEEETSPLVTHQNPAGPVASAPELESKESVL
Procedure: Uptake of L-[^3H]amino acids (PerkinElmer Life Sciences) was measured in oocytes expressing wild-type and mutant ASCT1, and uninjected oocytes. Five oocytes were incubated in Cl^−-containing buffer with 10 µM L-[^3H]amino acids at room temperature. After 10 min, uptake was terminated by three rapid washes in ice-cold Cl^−-containing buffer followed by lysis in 50 mM NaOH and 1% SDS. L-[^3H]amino acids were measured by scintillation counting using a Trilux beta counter (PerkinElmer Life Sciences).
Supplementary Figure 6. GltPh‐R397C, ASCT1 and ASCT2 are functional cysteine transporters. (a) […]
7.5) containing 1 µM of valinomycin and the 10µM 35S‐cysteine. […]
All data represent the mean of triplicate
(1 picture or pasted object on this page, not shown here)

T1 sequence (O59010 whole entry G396S/R397C): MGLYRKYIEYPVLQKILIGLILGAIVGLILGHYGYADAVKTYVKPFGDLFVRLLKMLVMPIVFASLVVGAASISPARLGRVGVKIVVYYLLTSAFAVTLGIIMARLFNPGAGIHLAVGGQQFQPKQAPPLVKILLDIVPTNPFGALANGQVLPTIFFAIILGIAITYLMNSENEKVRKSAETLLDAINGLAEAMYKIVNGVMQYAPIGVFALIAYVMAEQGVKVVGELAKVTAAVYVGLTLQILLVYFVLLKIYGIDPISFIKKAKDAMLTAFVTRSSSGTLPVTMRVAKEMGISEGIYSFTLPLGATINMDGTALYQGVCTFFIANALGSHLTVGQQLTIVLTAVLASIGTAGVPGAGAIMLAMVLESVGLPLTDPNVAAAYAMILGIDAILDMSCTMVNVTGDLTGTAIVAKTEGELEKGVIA

| Structure (SMILES) | IC50 for inhibition of L-[3H]serine transport (GltPh-G396S/R397C; GltPh-G396S/R397C, 1 µM L-[3H]serine) | Radiolabelled substrate uptake into oocytes (in words) (ASCT1) | Reduction of L-[3H]serine transport by unlabelled competitor (in words) (GltPh-G396S/R397C; GltPh-R397C/G396S, 10 µM L-[3H]serine, 100-fold excess unlabelled amino acid) | Transport of radiolabelled substrate into proteoliposomes (in words) (GltPh-G396S/R397C; GltPh-G396S/R397C, 100 nM L-[3H]aspartate, 1 µM L-[3H]glutamine, Na+ gradient, pH 7.5) | EC50 (GltPh-G396S/R397C) |
| --- | --- | --- | --- | --- | --- |
| N[C@@H](CCC(=O)Nc1ccc([N+](=O)[O-])cc1)C(=O)O [GPNA, glutamyl-p-nitroanilide] | poor inhibitor | – | – | – | – |
| N[C@@H](CS)C(=O)O [L-cysteine] | – | robust L-[^35S]cysteine uptake | to a similar extent | – | – |
| NC(=O)CC[C@H](N)C(=O)O [L-glutamine] | – | no glutamine transport is observed | – | does not effectively transport | – |
| N[C@@H](CO)C(=O)O [L-serine] | – | observe L-[^3H]serine uptake | – | – | 15 ± 2 µM |
